Reference: ChEMBL document CHEMBL1153286, “Synthesis and biological evaluation of sulfonylurea and thiourea derivatives substituted with benzenesulfonamide groups as potential hypoglycemic agents” (Bioorg Med Chem Lett, 2009)
Activity calls are given as the source filed them. The rule behind the calls is not given here.

Key:
Adipocyte [1] = test: Effect on 2-deoxy-D-[1-3H]glucose transport in Sprague-Dawley rat adipocytes at 1 uM in presence of insulin by liquid scintillation counting; type: functional
[2] = Effect on insulin release in rat pancreatic cells at 100 umol/L after 6 hrs by radioimmunoassay; type: functional
Adipocyte [3] = test: Increase in glucose absorption in Sprague-Dawley rat adipocytes at 100 uM by liquid scintillation counting relative to basal level; type: functional
Adipocyte [4] = test: Effect on 2-deoxy-D-[1-3H]glucose transport in Sprague-Dawley rat adipocytes at 100 uM in absence of insulin by liquid scintillation counting; type: functional
Adipocyte [5] = test: Effect on 2-deoxy-D-[1-3H]glucose transport in Sprague-Dawley rat adipocytes at 10 uM in absence of insulin by liquid scintillation counting; type: functional
Adipocyte [6] = test: Effect on 2-deoxy-D-[1-3H]glucose transport in Sprague-Dawley rat adipocytes at 10 uM in presence of insulin by liquid scintillation counting; type: functional
[7] = Increase in insulin release in rat pancreatic cells at 100 umol/L after 6 hrs by radioimmunoassay relative to basal level; type: functional
Adipocyte [8] = test: Effect on 2-deoxy-D-[1-3H]glucose transport in Sprague-Dawley rat adipocytes at 1 uM in absence of insulin by liquid scintillation counting; type: functional
Adipocyte [9] = test: Effect on 2-deoxy-D-[1-3H]glucose transport in Sprague-Dawley rat adipocytes at 100 uM in presence of insulin by liquid scintillation counting; type: functional
[10] = Antiplatelet activity in human platelets assessed as inhibition of arachidonic acid-induced platelet aggregation; type: functional, cell-based
[11] = Antiplatelet activity in human platelets assessed as inhibition of ADP-induced platelet aggregation; type: functional, cell-based
Mus musculus [12] = test: Protection against collagen-epinephrine-induced mortality in Chinese Kunming cerebral thrombosis mouse model assessed as survival rate at 60 mg/kg, po administered once daily for 7 days measured on day 7 within 15 mins of collagen-epinephrine challenge; type: functional
[13] = Effect on insulin release in rat pancreatic cells at 1 umol/L after 6 hrs by radioimmunoassay; type: functional
[14] = Effect on insulin release in rat pancreatic cells at 10 umol/L after 6 hrs by radioimmunoassay; type: functional
[15] = Tmax in rat at 2.5 mg/kg, iv or 5 mg/kg, po; type: ADME, organism-based; conditions: in vivo
[16] = Volume of distribution in rat at 2.5 mg/kg, iv or 5 mg/kg, po; type: ADME, organism-based; conditions: in vivo
Rattus norvegicus = test: AUC in rat at 5 mg/kg, po; type: ADME, organism-based, Plasma; design: dose 5 mg/kg, route oral; conditions: in vivo
[17] = Cmax in rat at 2.5 mg/kg, iv or 5 mg/kg, po; type: ADME, organism-based; conditions: in vivo
[18] = Half life in rat at 2.5 mg/kg, iv; type: ADME, organism-based; design: dose 2.5 mg/kg, route intravenous; conditions: in vivo
[19] = Oral bioavailability in rat at 5 mg/kg, po; type: ADME, organism-based; conditions: in vivo
[20] = Clearance in rat at 2.5 mg/kg, iv or 5 mg/kg, po; type: ADME, organism-based; conditions: in vivo
Mus musculus [21] = test: Reduction of plasma glucose level in fasted C57BL/6J mouse at 20 mg/kg, po administered daily for 3 days measured on day 5 after 6 hrs by glucose oxidase trinder method; type: functional; design: scale not given: the % may be the effect or the level left
Mus musculus [22] = test: Protection against collagen-epinephrine-induced mortality in Chinese Kunming cerebral thrombosis mouse model assessed as survival rate at 40 mg/kg, po administered once daily for 7 days measured on day 7 within 15 mins of collagen-epinephrine challenge; type: functional
[23] = Half life in rat at 5 mg/kg, po; type: ADME, organism-based; design: dose 5 mg/kg, route oral; conditions: in vivo
Mus musculus [24] = test: Reduction of plasma glucose level in fasted C57BL/6J mouse at 2.5 mg/kg, po administered daily for 3 days measured on day 5 by glucose oxidase trinder method; type: functional, organism-based; design: dose 2.5 mg/kg
Mus musculus [25] = test: Reduction of plasma glucose level in fasted C57BL/6J mouse at 7 mg/kg, po administered daily for 3 days measured on day 5 by glucose oxidase trinder method; type: functional, organism-based; design: dose 7 mg/kg
Mus musculus [26] = test: Protection against collagen-epinephrine-induced mortality in Chinese Kunming cerebral thrombosis mouse model assessed as survival rate at 20 mg/kg, po administered once daily for 7 days measured on day 7 within 15 mins of collagen-epinephrine challenge; type: functional
Mus musculus [27] = test: Protection against collagen-epinephrine-induced mortality in Chinese Kunming cerebral thrombosis mouse model assessed as survival rate at 10 mg/kg, po administered once daily for 7 days measured on day 7 within 15 mins of collagen-epinephrine challenge; type: functional

Structure (SMILES)	Activity (Adipocyte [1]) [disintegrations/minute]	Activity [2] [uIU/ml]	fold change (FC) (Adipocyte [3])	Activity (Adipocyte [4]) [disintegrations/minute]	Activity (Adipocyte [5]) [disintegrations/minute]	Activity (Adipocyte [6]) [disintegrations/minute]	fold change (FC) [7]	Activity (Adipocyte [8]) [disintegrations/minute]	Activity (Adipocyte [9]) [disintegrations/minute]	IC50 [10] [µM]	IC50 [11] [µM]	Activity [13] [uIU/ml]	Activity [14] [uIU/ml]	other results
CCC1=C(C)CN(C(=O)NCCc2ccc(S(=O)(=O)NC(=O)N[C@H]3CC[C@H](C)CC3)cc2)C1=O [GLIMEPIRIDE]	6365.67	48.14	2.5	11068.51	7476.6	8593.72	2.03	5061.2	13255.41					
CC(=O)Oc1ccccc1C(=O)O [ASPIRIN]										0.35	9.34			survival at 60 mg/kg (Mus musculus [12]): 63.6%
CC1CCC(NC(=O)NS(=O)(=O)c2ccc(CCNS(=O)(=O)c3ccc(Cl)cc3)cc2)CC1 (stereo not given)	5972.68	72.23	1.57	6960.26	6411.7	6358.77	3.05	5869.85	7013.28			38.15	41.29	
Cc1ccc(S(=O)(=O)NCCc2ccc(S(=O)(=O)NC(=S)Nc3ccc(Cl)cc3)cc2)cc1	5115.18	22.25	1.59	7061.15	6514.04	5512.62		5687.31	7832.17			23.89	23.01	
CC1CCC(NC(=O)NS(=O)(=O)c2ccc(CCNS(=O)(=O)c3ccc(Br)cc3)cc2)CC1 (stereo not given)	5996.43	86.08	1.73	7674.84	6512.65	7979.94	3.64	4871.74	8486.79	0.21	3	40.79	65.21	Tmax [15]: 49.8 min; Vd [16]: 0.78 L/kg; AUC (Rattus norvegicus): 10 mg·h/L; Cmax [17]: 3330 ng/mL; half-life [18]: 115 min; bioavailability [19]: 52.7%; clearance [20]: 6 mL/min; Activity (Mus musculus [21]): 50%; survival at 40 mg/kg (Mus musculus [22]): 72.7%; half-life [23]: 106 min; Activity (Mus musculus [24]): Active; Activity (Mus musculus [25]): Active; survival at 20 mg/kg (Mus musculus [26]): 45.5%; survival at 10 mg/kg (Mus musculus [27]): 27.3%
